Experimental data as given in PubChem BioAssay (NCI).
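96-well plates; 48 h exposure; 5 concentrations. Endpoints by linear interpolation between flanking doses. Not reached: highest tested concentration assigned. At the TGI there is no net growth.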

What was measured:
Experiment in all cases: NCI anticancer screen, dose series, 48 h
SK-MEL-5 melanoma = test system: SK-MEL-5 melanoma
U251 CNS = test system: U251 CNS
NCI-H226 lung = test system: NCI-H226 lung
MDA-MB-231 breast = test system: MDA-MB-231 breast
RPMI-8226 leukemia = test system: RPMI-8226 leukemia
CCRF-CEM leukemia = test system: CCRF-CEM leukemia
CAKI-1 renal = test system: CAKI-1 renal
OVCAR-8 ovarian = test system: OVCAR-8 ovarian
NCI-H522 lung = test system: NCI-H522 lung
KM12 colon = test system: KM12 colon
HT29 colon = test system: HT29 colon
ACHN renal = test system: ACHN renal
UACC-257 melanoma = test system: UACC-257 melanoma
OVCAR-4 ovarian = test system: OVCAR-4 ovarian
OVCAR-3 ovarian = test system: OVCAR-3 ovarian
M14 melanoma = test system: M14 melanoma
A549 NSCLC = test system: A549 NSCLC
SK-MEL-2 melanoma = test system: SK-MEL-2 melanoma
COLO 205 colon = test system: COLO 205 colon
HCC-2998 colon = test system: HCC-2998 colon
MDA-MB-435 = test system: MDA-MB-435
NCI-H23 lung = test system: NCI-H23 lung
EKVX NSCLC = test system: EKVX NSCLC
HCT-116 colon = test system: HCT-116 colon
TK-10 renal = test system: TK-10 renal
A498 renal = test system: A498 renal
SK-MEL-28 melanoma = test system: SK-MEL-28 melanoma
HOP-62 NSCLC = test system: HOP-62 NSCLC
UO-31 renal = test system: UO-31 renal
T-47D breast = test system: T-47D breast
SF-295 CNS = test system: SF-295 CNS
K-562 leukemia = test system: K-562 leukemia
SW-620 colon = test system: SW-620 colon
NCI-H460 lung = test system: NCI-H460 lung
HOP-92 NSCLC = test system: HOP-92 NSCLC
SK-OV-3 ovarian = test system: SK-OV-3 ovarian
UACC-62 melanoma = test system: UACC-62 melanoma
PC-3 prostate = test system: PC-3 prostate
786-0 renal = test system: 786-0 renal
MCF7 breast = test system: MCF7 breast
SNB-75 CNS = test system: SNB-75 CNS
MDA-N = test system: MDA-N
MALME-3M melanoma = test system: MALME-3M melanoma
HL-60(TB) leukemia = test system: HL-60(TB) leukemia
LOX IMVI melanoma = test system: LOX IMVI melanoma
SR leukemia = test system: SR leukemia
BT-549 breast = test system: BT-549 breast
DU-145 prostate = test system: DU-145 prostate
MOLT-4 leukemia = test system: MOLT-4 leukemia
SF-268 CNS = test system: SF-268 CNS
SN12C renal = test system: SN12C renal
SNB-19 CNS = test system: SNB-19 CNS
HCT-15 colon = test system: HCT-15 colon
OVCAR-5 ovarian = test system: OVCAR-5 ovarian
IGROV1 ovarian = test system: IGROV1 ovarian
SF-539 CNS = test system: SF-539 CNS
NCI/ADR-RES ovarian = test system: NCI/ADR-RES ovarian
RXF 393 renal = test system: RXF 393 renal
HS 578T breast = test system: HS 578T breast

## OCCCNCC(O)c1ccc(OCc2ccccc2)c(OCc2ccccc2)c1 (centres undefined)
SK-MEL-5 melanoma
  TGI: 13.5 µM
U251 CNS
  TGI: 23.1 µM
NCI-H226 lung
  TGI: 29.7 µM
MDA-MB-231 breast
  TGI: 28.7 µM
RPMI-8226 leukemia
  TGI: 19.9 µM
CCRF-CEM leukemia
  TGI: 17.5 µM
CAKI-1 renal
  TGI: 32.5 µM
OVCAR-8 ovarian
  TGI: 26.6 µM
NCI-H522 lung
  TGI: 30 µM
KM12 colon
  TGI: 26 µM
HT29 colon
  TGI: 16 µM
ACHN renal
  TGI: 23.8 µM
UACC-257 melanoma
  TGI: 25.6 µM
OVCAR-4 ovarian
  TGI: 18.3 µM
OVCAR-3 ovarian
  TGI: 30.4 µM
M14 melanoma
  TGI: 31.5 µM
A549 NSCLC
  TGI: 26.3 µM
SK-MEL-2 melanoma
  TGI: 15.1 µM
COLO 205 colon
  TGI: 10.2 µM
HCC-2998 colon
  TGI: 10 µM
MDA-MB-435
  TGI: 15.2 µM
NCI-H23 lung
  TGI: 33.3 µM
EKVX NSCLC
  TGI: 30.4 µM
HCT-116 colon
  TGI: 18.3 µM
TK-10 renal
  TGI: 15.8 µM
A498 renal
  TGI: 25.8 µM
SK-MEL-28 melanoma
  TGI: 20.4 µM
HOP-62 NSCLC
  TGI: 28.8 µM
UO-31 renal
  TGI: 28.8 µM
T-47D breast
  TGI: 34.4 µM
SF-295 CNS
  TGI: 20.8 µM
K-562 leukemia
  TGI: 33.5 µM
SW-620 colon
  TGI: 15.8 µM
NCI-H460 lung
  TGI: 15.8 µM
HOP-92 NSCLC
  TGI: 24.1 µM
SK-OV-3 ovarian
  TGI: 24.4 µM
UACC-62 melanoma
  TGI: 42.8 µM
PC-3 prostate
  TGI: 25.4 µM
786-0 renal
  TGI: 14.3 µM
MCF7 breast
  TGI: 16 µM
SNB-75 CNS
  TGI: 14.1 µM
MDA-N
  TGI: 21.6 µM
MALME-3M melanoma
  TGI: 29.7 µM
HL-60(TB) leukemia
  TGI: 21.4 µM
LOX IMVI melanoma
  TGI: 13.7 µM
SR leukemia
  TGI: 28 µM
BT-549 breast
  TGI: 31.9 µM
DU-145 prostate
  TGI: 30.8 µM
MOLT-4 leukemia
  TGI: 19.2 µM
SF-268 CNS
  TGI: 30.9 µM
SN12C renal
  TGI: 29.7 µM
SNB-19 CNS
  TGI: 38.5 µM
HCT-15 colon
  TGI: 27.5 µM
OVCAR-5 ovarian
  TGI: 29.5 µM
IGROV1 ovarian
  TGI: 23.4 µM
SF-539 CNS
  TGI: 27.2 µM
NCI/ADR-RES ovarian
  TGI: 37.2 µM
RXF 393 renal
  TGI: 42.7 µM
HS 578T breast
  TGI: 35.6 µM
